Here are results for 8 molecules from patent US6436966B1, “Adenosine A3 receptor antagonists” (Takeda Chemical Ind., Ltd., priority 1997, dated 2002).

In general, melting point refers to the temperature, or range, at which the solid turns liquid.

Counter-ions that a name gives are not always drawn.

Tested on in the first series: not given
Assay: not given
Settings: not given
For `CC(=O)Nc1nc(-c2ccncc2)c(-c2cc(C)cc(C)c2)s1` [Example Compound 5-2, N-[5-(3,5-dimethylphenyl)-4-(4-pyridyl)-1,3-thiazol-2-yl]acetamide], the melting point is 304 to 308 °C.
The molecule `COc1ccc(-c2nc(NC(=O)C(C)C)sc2-c2cccnc2)cc1` [13-92] yielded a melting point of 213 to 216 °C.
`COc1ccc(-c2nc(NC(C)=O)sc2-c2ccncc2)cc1` (as salt: HCl) [13-89] registered a melting point of 275 to 278 °C.
In the case of `Cc1cc(C)cc(-c2sc(N)nc2-c2ccncc2)c1` [Example Compound 4-2, [5-(3,5-dimethylphenyl)-4-(4-pyridyl)-1,3-thiazol-2-yl]amine], the melting point is 262 to 263 °C.
Consider `CC(=O)Nc1nc(-c2ccncc2)c(-c2ccc(C(C)(C)C)cc2)s1` [Example Compound 5-1, N-[5-[4-(1,1-dimethylethyl)phenyl]-4-(4-pyridyl)-1,3-thiazol-2-yl]acetamide], for which the melting point was in the range of 245 to 246 °C.
Take `CC(C)(C)c1ccc(-c2sc(N)nc2-c2ccncc2)cc1` [Example Compound 4-1, [5-[4-(1,1-dimethylethyl)phenyl]-4-(4-pyridyl)-1,3-thiazol-2-yl]amine]: the melting point lay within 275 to 277 °C.

For the next series, the target named is T1, human adenosine A3 receptor (Homo sapiens, UniProt P0DMS8).
T1 construct: expressed in transfected cells; membrane fraction used
T1 sequence (P0DMS8 1-318): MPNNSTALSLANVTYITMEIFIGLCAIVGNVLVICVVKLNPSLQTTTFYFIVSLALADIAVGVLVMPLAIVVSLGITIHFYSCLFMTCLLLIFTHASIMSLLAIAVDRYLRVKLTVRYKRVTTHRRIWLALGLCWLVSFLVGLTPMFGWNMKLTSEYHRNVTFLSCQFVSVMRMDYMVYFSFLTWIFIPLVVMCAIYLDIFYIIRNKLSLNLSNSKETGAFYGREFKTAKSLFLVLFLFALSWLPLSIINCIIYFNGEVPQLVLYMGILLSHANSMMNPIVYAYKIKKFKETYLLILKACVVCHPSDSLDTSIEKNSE
The experiment in a line: Binding assay with adenosine A3 receptor: [3H]-NECA binding to membranes of A3AR/CHO cells. As to conditions: 10 nM [3H]-NECA, 100 μg/ml A3AR/CHO cell membranes, 1 hour at room temperature; read-out: IC50 (concentration that inhibits 50% specific binding of [3H]-NECA to the membrane). As for the experimental part:
(1) Cloning of Human Adenosine A3 Receptor
Cloning of the human adenosine A3 receptor gene was carried out by the polymerase chain reaction (PCR) from human brain cDNA. Using 1 ng of brain cDNA (Quick-Clone cDNA, TOYOBO, Osaka) as template, PCR was performed in DNA Thermal Cycler 480 (Perkin Elmer, Foster, Calif.) (reaction conditions: 35 cycles of 1 min at 95° C., 1 min at 66° C., and 2 min at 75° C.) by mixing primers (50 pmol each), 5′-[…]-3′ [Sequence No. 1] and 5′-[…]-3′ [Sequence No. 2], which were designed referring to nucleotide sequence of adenosine A3 receptor gene reported by Salvatore et. al., (Proc. Natl. Acad. Sci. U.S.A., 90:10365-10369, 1993) and TaKaRa LA PCR Kit Ver.2 (TaKaRa Shuzo Co. Ltd., Kyoto) in a Thermal cycler 480 (Parkin Elmer). The PCR product was electrophoresed and 1.0 kb DNA fragment was recovered. The DNA fragment encoding adenosine A3 receptor was cloned using Original TA Cloning Kit (FUNAKOSHI, Tokyo).
(3) Transfection of Adenosine A3 Receptor Expression Plasmid into CHO (dhfr^−) and the Expression
CHO (dhfr^−) cells were grown on Ham's F-12 medium (Nihon Selyaku, Tokyo) supplement with 10% fetal bovine serum (Life Tech Oriental; Life Technologies, Inc., Rockville, Md., USA) in a 750 ml Tissue culture flask (Becton Dickinson, Mt. View, Calif.). The growing cells were treated with 0.5 g/l trypsin-0.2 g/l EDTA (Life Technologies, Inc., Rockville, Md., USA) to harvest, washed with PBS (Life Technologies, Inc., Rockville, Md., USA), centrifugated at 1000 rpm for 5 min, and suspended in PBS. […] The cells were incubated in assay buffer I (HBSS (Wako chemicals, Osaka) containing 0.1% BSA, 0.25 mM PMSF, 1 μg/ml pepstatin, and 20 μg/ml leupeptin) to which was added 50 pM ^125I-AB-MECA (Amersham) as ligand, for 1 hour, and washed with assay buffer I. The radioactivity associated with the:.cell was measured in a γ-counter to select A3AR/CHO cells which specifically bind to the ligand. […]
Regarding `COc1ccc(-c2nc(NC(=O)C(C)C)sc2-c2cccnc2)cc1` [13-92], the IC50 was found to be 0.7 nM.
As for `COc1ccc(-c2nc(NC(C)=O)sc2-c2ccncc2)cc1` [13-89], the IC50 stood at 0.55 nM.
On the same count and under the same terms, under `COc1ccc(-c2nc(NC(C)=O)sc2-c2cccnc2)cc1` [Reference Example Compound 10, N-[4-(4-Methoxyphenyl)-5-(3-pyridyl)-1,3-thiazol-2-yl]acetamide] stands 0.27 nM.
